Tests used:
MDAMB415 = experiment: GRmax, 72 h; higher = less effect;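 note: breast cell lines in 384-well plates, nine doses across a 10^4 range, Dye Drop imaging of viable cells vs DMSO and time-zero plates, GR 0 means no net growth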
HCC1419 = experiment: GRmax, 72 h; higher = less effect;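 note: breast cell lines in 384-well plates, nine doses across a 10^4 range, Dye Drop imaging of viable cells vs DMSO and time-zero plates, GR 0 means no net growth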
MCF10A = experiment: GRmax, 72 h; higher = less effect;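 note: breast cell lines in 384-well plates, nine doses across a 10^4 range, Dye Drop imaging of viable cells vs DMSO and time-zero plates, GR 0 means no net growth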
BT549 = experiment: GRmax, 72 h; higher = less effect;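 note: breast cell lines in 384-well plates, nine doses across a 10^4 range, Dye Drop imaging of viable cells vs DMSO and time-zero plates, GR 0 means no net growth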
CAMA1 = experiment: GRmax, 72 h; higher = less effect
HCC1954 = experiment: GRmax, 72 h; higher = less effect
HCC1500 = experiment: area over the GR curve, 72 h; higher = more effect;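 note: Dye Drop or Deep Dye Drop imaging of viable cells in 384-well plates (Hoechst nuclei, LIVE/DEAD dye), nine half-log doses, GR normalized to DMSO controls and time-zero plates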
MDAMB157 = experiment: area over the GR curve, 72 h; higher = more effect;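 note: Dye Drop or Deep Dye Drop imaging of viable cells in 384-well plates (Hoechst nuclei, LIVE/DEAD dye), nine half-log doses, GR normalized to DMSO controls and time-zero plates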
HCC1428 = experiment: area over the GR curve, 72 h; higher = more effect;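 note: Dye Drop or Deep Dye Drop imaging of viable cells in 384-well plates (Hoechst nuclei, LIVE/DEAD dye), nine half-log doses, GR normalized to DMSO controls and time-zero plates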

Row | SMILES | GRmax, 72 h (MDAMB415) [GR] | GRmax, 72 h (HCC1419) [GR] | GRmax, 72 h (MCF10A) [GR] | GRmax, 72 h (BT549) [GR] | GRmax, 72 h (CAMA1) [GR] | GRmax, 72 h (HCC1954) [GR] | area over the GR curve (HCC1500) [GR] | area over the GR curve (MDAMB157) [GR] | area over the GR curve (HCC1428) [GR] | GRmax, 72 h (HCC1419; main component drawn) [GR] | GRmax, 72 h (MCF10A; main component drawn) [GR] | GRmax, 72 h (BT549; main component drawn) [GR] | GRmax, 72 h (CAMA1; main component drawn) [GR] | GRmax, 72 h (HCC1954; main component drawn) [GR] | area over the GR curve (HCC1500; main component drawn) [GR] | area over the GR curve (MDAMB157; main component drawn) [GR] | area over the GR curve (HCC1428; main component drawn) [GR]
1 | O=C(CCCCCCC(=O)Nc1ccccc1)NO [Vorinostat] (max 10 µM) | -0.503 | -0.256 | 0.0566 | 0.113 | -0.49 | -0.14 | 0.301 | 0.297 | 0.339 | – | – | – | – | – | – | – | –
2 | Cc1nc(Nc2ncc(C(=O)Nc3c(C)cccc3Cl)s2)cc(N2CCN(CCO)CC2)n1 [Dasatinib] (max 10 µM) | 0.342 | -0.196 | -0.0146 | 0.37 | 0.679 | 0.274 | 0.925 | 0.518 | 0.256 | – | – | – | – | – | – | – | –
3 | Nc1cc(C(F)(F)F)c(-c2cc(N3CCOCC3)nc(N3CCOCC3)n2)cn1 [Buparlisib/NVP-BKM120] (max 10 µM) | -0.515 | -0.496 | -0.16 | -0.272 | -0.422 | -0.458 | 0.512 | 0.302 | 0.344 | – | – | – | – | – | – | – | –
4 | CC[C@@H]1C(=O)N(C)c2cnc(Nc3ccc(C(=O)N[C@H]4CC[C@H](N5CCN(CC6CC6)CC5)CC4)cc3OC)nc2N1C(C)C [Volasertib/BI6727] (max 1 µM) | -0.314 | 0.0685 | -0.0887 | -0.229 | -0.296 | -0.154 | 0.297 | 0.851 | 0.395 | – | – | – | – | – | – | – | –
5 | CC(C)NC[C@@H](C(=O)N1CCN(c2ncnc3c2[C@H](C)C[C@H]3O)CC1)c1ccc(Cl)cc1 [Ipatasertib/GDC0068] (max 10 µM) | -0.698 | 0.505 | 0.647 | 0.496 | -0.236 | 0.251 | -0.0881 | 0.0813 | -0.0745 | – | – | – | – | – | – | – | –
6 | Nc1ccc(-c2ccc3ncc4ccc(=O)n(-c5cccc(C(F)(F)F)c5)c4c3c2)cn1 [Torin2] (max 1 µM) | -0.372 | -0.372 | 0.128 | -0.0209 | -0.147 | -0.328 | 0.888 | 0.41 | 0.439 | – | – | – | – | – | – | – | –
7 | O=C1NC(=O)[C@@H](c2cn3c4c(cccc24)CCC3)[C@@H]1c1c[nH]c2ccccc12 [Tivantinib/ARQ197] (max 10 µM) | -0.184 | 0.163 | -0.15 | -0.265 | -0.566 | -0.385 | 0.491 | 0.388 | 0.345 | – | – | – | – | – | – | – | –
8 | COc1cc([C@@H]2c3cc4c(cc3[C@@H](O[C@@H]3O[C@@H]5CO[C@@H](C)O[C@H]5[C@H](O)[C@H]3O)[C@H]3COC(=O)[C@H]23)OCO4)cc(OC)c1O [Etoposide] (max 10 µM) | – | 0.0317 | -0.0699 | -0.195 | -0.448 | -0.265 | 0.218 | 0.609 | 0.39 | – | – | – | – | – | – | – | –
9 | CC(C)n1nc(-c2ccc3oc(N)nc3c2)c2c(N)ncnc21 [INK128/MLN0128] (max 3.162 µM) | -0.338 | -0.147 | 0.172 | 0.0717 | -0.0962 | -0.083 | 1.23 | 0.514 | 0.648 | – | – | – | – | – | – | – | –
10 | COc1cc2c(Oc3ccc4[nH]c(C)cc4c3F)ncnc2cc1OCCCN1CCCC1 [Cediranib/AZD2171] (max 10 µM) | -0.208 | -0.0329 | 0.478 | -0.135 | -0.292 | -0.32 | 0.0909 | 0.349 | 0.189 | – | – | – | – | – | – | – | –
11 | Cc1c(N)nc([C@H](CC(N)=O)NC[C@H](N)C(N)=O)nc1C(=O)N[C@H](C(=O)N[C@H](C)[C@@H](O)[C@H](C)C(=O)N[C@H](C(=O)NCCc1nc(-c2nc(C(=O)NCCC[S+](C)C)cs2)cs1)[C@@H](C)O)[C@@H](OC1OC(CO)C(O)C(O)C1OC1OC(CO)C(O)C(OC(N)=O)C1O)c1cnc[nH]1 (stereo not given in full) [Bleomycin] (max 10 µM) | – | – | – | – | – | – | – | – | – | 0.354 | 0.0378 | -0.0141 | -0.0365 | -0.0884 | 0.147 | 0.281 | 0.178
12 | CN(C)CC[C@H](CSc1ccccc1)Nc1ccc(S(=O)(=O)NC(=O)c2ccc(N3CCN(Cc4ccccc4-c4ccc(Cl)cc4)CC3)cc2)cc1[N+](=O)[O-] [ABT-737] (max 10 µM) | 0.352 | 0.471 | 0.817 | 0.936 | 0.864 | 0.496 | 1.13 | 0.0446 | 0.111 | – | – | – | – | – | – | – | –
13 | CCc1cncnc1N1CCN(Cc2nc3ccc(C(F)(F)F)cc3[nH]2)CC1 (max 10 µM) | 0.431 | 0.349 | 0.721 | 0.744 | 0.655 | 0.835 | 0.182 | 0.119 | -0.0224 | – | – | – | – | – | – | – | –
14 | CO[C@H]1C[C@@H]2CC[C@@H](C)[C@@](O)(O2)C(=O)C(=O)N2CCCC[C@H]2C(=O)O[C@H]([C@H](C)C[C@@H]2CC[C@@H](OCCO)[C@H](OC)C2)CC(=O)[C@H](C)/C=C(\C)[C@@H](O)[C@@H](OC)C(=O)[C@H](C)C[C@H](C)/C=C/C=C/C=C/1C [Everolimus] (max 10 µM) | 0.0852 | 0.18 | 0.789 | 0.52 | 0.164 | 0.326 | 1.26 | 0.394 | 0.519 | – | – | – | – | – | – | – | –
15 | CC(=O)O[C@H]1C(=O)[C@@]2(C)[C@H]([C@H](OC(=O)c3ccccc3)[C@]3(O)C[C@H](OC(=O)[C@H](O)[C@@H](NC(=O)c4ccccc4)c4ccccc4)C(C)=C1C3(C)C)[C@]1(OC(C)=O)CO[C@@H]1C[C@@H]2O [Paclitaxel] (max 1 µM) | -0.344 | 0.214 | -0.126 | -0.207 | -0.494 | -0.396 | 0.609 | 0.946 | 0.507 | – | – | – | – | – | – | – | –
16 | Cc1nc(-c2cn3c(n2)-c2ccc(-c4cnn(C(C)(C)C(N)=O)c4)cc2OCC3)n(C(C)C)n1 [Taselisib/GDC0032] (max 10 µM) | -0.792 | -0.405 | 0.0593 | 0.095 | -0.152 | -0.363 | 0.209 | 0.339 | 0.139 | – | – | – | – | – | – | – | –
17 | Cc1nn(C)c(COc2ccc(N3CCN(S(=O)(=O)N(C)C)CC3)cc2)c1-c1cccc2c(CCCOc3cccc4ccccc34)c(C(=O)O)n(CCN3CCOCC3)c12 (max 10 µM) | 0.881 | 0.708 | 0.953 | 0.954 | 0.876 | 0.884 | -0.063 | 0.0057 | -0.0325 | – | – | – | – | – | – | – | –
18 | Cc1cc(C(C)Nc2ccccc2)c2nc(N3CCOCC3)cc(=O)n2c1 (stereo not given) [TGX221] (max 10 µM) | 0.184 | 0.794 | 0.951 | 0.81 | 0.85 | 0.961 | 0.0613 | -0.005 | 0.0058 | – | – | – | – | – | – | – | –
